Tested on: non-human primates (cynomolgus macaques)
Test: Crystalline GW2580 alginate capsules (0.5 and 1.5 mm) implanted IP and SC in non-human primates, foreign body response
Format: in vivo
Settings: for macrophage responses on retrieved capsules (FACS): all cases of remaining drug
Protocol: Lead candidates identified in these studies, like GW2580, were subsequently tested in a non-human primate (NHP) model in which capsules (0.5 and 1.5 mm) were implanted in both the intraperitoneal (IP) and subcutaneous (SC) spaces (FIGS. 12 and 13C). […] IP space (lavage) drug concentrations were traced by LCMS fort each capsule type following retrieval time points, and found to drop from only 2-3 ng/ml at 4 weeks post-implantation to below detectable limit (0.5 ng/ml) beyond. […] And while 0.5 mm drug-loaded capsules became clumped at 3 months, they were not extensively embedded into surrounding omental tissue until 6 months (FIGS. 12, 23B and 23C).
For non-human primate (NHP) procedures, buprenorphine (0.01-0.03 mg/kg) was administered as a pre-operative analgesic. NHPs were then sedated using an intramuscular (IM) injection of ketamine (10 mg/kg) with an addition of midazolam as dictated by DCM vet staff if needed for additional sedation. Animals were maintained on a circulating warm water blanket and covered with a towel during the procedure to maintain body temperature. Either 0.5 or 1.5 mm diameter (drug-loaded) SLG20 spheres were implanted by minimally invasive laparoscopic surgery, and injected into the dorsal (back) regions of 4 non-human primates (cynomolgus macaques) using 18 and 12 gauge custom-manufactured (Harvard Apparatus) sterile stainless steel needles, with slip tip syringes in order to prevent shearing of our biomaterial upon injection. Needles were inserted tangentially to the backs of the NHPs, and were slid (tunneled) approximately 1-2 cm away from the initial injection point, in order to try to separate the injection from that of the site of eventual material response. Spheres (0.5 and 1.5 mm diameter) were injected into 4 total spots on the flank of 4 of our non-human primates: two spots on the left flank and two on the right, for 0.5 mm and 1.5 mm diameter sphere implants, respectively.
For non-human primate intraperitoneal and subcutaneous retrievals, similar to when material was implanted, NHPs were once again given buprenorphine (0.01-0.03 mg/kg) as a pre-operative analgesic, and sedated using an IM injection of ketamine (10 mg/kg), with midazolam as dictated by DCM vet staff if needed for additional sedation. Animals were once again maintained on a circulating warm water blanket and covered with a towel during the procedure to maintain body temperature. 8 mm diameter biopsy punches were then used to sample the entire skin and subcutaneous space at 2 and later at 4 weeks post-implantation. Following biopsy punches, the retrieval site was closed with 3-0 nylon in a simple-interrupted pattern and VetBond (tissue glue). For IP retrievals, minimally invasive laparoscopic surgery was also used (similar to implant procedures). […]

COc1ccc(COc2ccc(Cc3cnc(N)nc3N)cc2OC)cc1 [GW2580, 5-[[3-Methoxy-4-[(4-methoxyphenyl)methoxy]phenyl]methyl]-2,4-pyrimidinediamine]
sphere embedding and collagen deposition (H&E and Masson's Trichrome) (0.5 and 1.5 mm drug-loaded capsules, excised implant-site tissue): lack of sphere embedding and collagen deposition
fibrosis development (phase contrast) (crystalline, 0.5 and 1.5 mm capsules, 2 and 4 weeks, IP and SC): prevented fibrosis development
macrophage responses on retrieved capsules (FACS) (crystalline, 0.5 and 1.5 mm capsules): significant inhibition of macrophage responses
macrophage responses on retrieved capsules (FACS) (crystalline, 0.5 and 1.5 mm capsules, listed as GW): reduced multiple orders of magnitude
